This note sets out measurements from patent US4902716A (priority 1984, dated 1990).

Data set [1] deals with cells. Kind of data set: Cytotoxicity (zone diameter in the antiviral assay). It counts as cell-based. The settings on record: Day 5. As to the method:
The following assay method was utilized to illustrate the antiviral effectiveness of the compounds of formulae III and IV: […]
(1) Remove 75 cm^2 culture flasks from incubator (these were plated the previous week).
(3) Wash with 10 ml. PBSA or Puck's Saline.
(5) Wash a second time with 10 mL PBSA or Puck's Saline.
(7) Add 2 ml. trypsin/EDTA. Incubate until cells detach (10-20 min).
(8) Once detached, shake vigorously and immediately add 8 ml. medium and shake again.
(9) Count cells. (To 0.5 ml. cell suspension add 0.1 ml. trypan blue. Wait 5-10 minutes. Count 4 corner squares and middle square of 5×5 array in hemocytometer. Blue cells are dead. Total count per 10 ml. in culture flask=number of live cells×6×10^5).
(10) Maintain cell line by adding 3×10^6 cells to another 75 cm^2 culture flask. Bring to 30 ml. with fresh medium.
(11) For assay, add 1×10^6 cells to each well (6 wells per culture dish). Bring each well to 2 ml. with fresh medium.
(12) Incubate overnight at 37° C.
(2) Add 0.5 of medium containing 200 pfu HSV-I.
(3) Incubate 102 hr with a small amount of shaking.
(4) Add 2 ml. MC-4000 to each well.
(5) Place disks on surface and wash through (1 mg/disc, 0.5 mg/disc, 0.25 mg/disc, etc. for crude extracts).
(6) Incubate 48 hr. (making sure dishes remain level).
(1) Add 2 ml. neutral red medium.
(1) Read wells, e.g. 26 (++) where 26 indicates zone of cytotoxicity as the diameter in mm (12.5 mm to 36 mm) and (++) indicates the inhibition of plaque formation: complete inhibition (+++); a few plaques around the outside of well (++); definite inhibition (+); questionable inhibition (+/-); no inhibition (-); and no conclusion due to complete cytotoxicity.
The following antiviral inhibiting activity results were obtained utilizing the compounds of Formula III and IV at Day 5: […]

For data set [2], the system named is VSV. It counts as cell-based, vesicular stomatitis. The conditions noted are these: Day 5, inhibition of plaque formation.

Like-named read-outs stand apart in the source and are kept apart here.

`C=C1C(=O)C=CC(C)(C)[C@@]12C[C@@H](Br)[C@](C)(Cl)C[C@@H]2O` [IV]: the Cytotoxicity in data set [1] (100 micrograms) stood at 0 mm; in data set [1] (200 micrograms) it was 0 mm; in data set [1] (400 micrograms) it was 12 mm. The VSV activity result is recorded as “+” in data set [2] (100 micrograms), “++” in data set [2] (200 micrograms) and “++” in data set [2] (400 micrograms).
